Here are results for 7 molecules from publication PMC8253220, “Molecular design, synthesis and in vitro biological evaluation of thienopyrimidine–hydroxamic acids as chimeric kinase HDAC inhibitors: a challenging approach to combat cancer” (Journal of Enzyme Inhibition and Medicinal Chemistry, 2021).

Like-named read-outs stand apart in the source and are kept apart here.

The test system of assay [1] is HER2. The following applies: Figure 2; cited from earlier work.
Assay [2] deals with VEGFR2. The following applies: cited from earlier work.
The target of assay [3] is EGFR (Homo sapiens, UniProt P00533). The following applies: cited from earlier work.
Chain of EGFR (P00533 25-1210): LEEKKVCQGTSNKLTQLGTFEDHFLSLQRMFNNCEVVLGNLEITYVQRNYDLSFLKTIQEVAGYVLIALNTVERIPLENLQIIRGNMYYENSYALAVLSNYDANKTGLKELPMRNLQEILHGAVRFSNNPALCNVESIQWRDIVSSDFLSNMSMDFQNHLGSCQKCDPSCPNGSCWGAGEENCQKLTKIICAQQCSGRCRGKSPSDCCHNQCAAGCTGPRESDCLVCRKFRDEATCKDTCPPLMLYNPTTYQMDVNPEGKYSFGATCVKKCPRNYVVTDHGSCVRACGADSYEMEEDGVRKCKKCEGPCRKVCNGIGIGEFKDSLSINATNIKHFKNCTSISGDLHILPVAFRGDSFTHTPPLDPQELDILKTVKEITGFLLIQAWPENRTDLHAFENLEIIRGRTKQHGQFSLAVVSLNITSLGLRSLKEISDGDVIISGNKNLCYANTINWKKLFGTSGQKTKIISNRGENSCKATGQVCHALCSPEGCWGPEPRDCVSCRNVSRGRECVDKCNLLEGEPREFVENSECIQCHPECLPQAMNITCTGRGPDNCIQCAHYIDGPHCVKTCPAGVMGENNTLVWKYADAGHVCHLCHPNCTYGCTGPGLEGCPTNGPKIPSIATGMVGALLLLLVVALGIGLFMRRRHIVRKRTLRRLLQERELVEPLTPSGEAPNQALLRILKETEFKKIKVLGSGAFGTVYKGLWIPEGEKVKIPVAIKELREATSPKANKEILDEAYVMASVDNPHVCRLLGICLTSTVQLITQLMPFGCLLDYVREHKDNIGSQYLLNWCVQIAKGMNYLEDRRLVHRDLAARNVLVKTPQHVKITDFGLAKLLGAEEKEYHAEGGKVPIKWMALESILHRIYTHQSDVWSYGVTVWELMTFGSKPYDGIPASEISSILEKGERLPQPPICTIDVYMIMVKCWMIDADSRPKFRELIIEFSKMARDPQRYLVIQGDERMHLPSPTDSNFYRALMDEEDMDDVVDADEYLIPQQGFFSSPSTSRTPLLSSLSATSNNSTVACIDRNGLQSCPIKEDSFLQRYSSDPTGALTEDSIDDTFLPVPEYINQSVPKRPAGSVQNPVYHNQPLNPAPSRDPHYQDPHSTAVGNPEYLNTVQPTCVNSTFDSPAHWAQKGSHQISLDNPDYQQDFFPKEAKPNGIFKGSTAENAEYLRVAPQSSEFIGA
Assay [4] concerns the target T1, HDAC6 (Homo sapiens, UniProt Q9UBN7).
T1 construct: purchased BPS Bioscience 50006
T1 sequence (Q9UBN7 1-1215): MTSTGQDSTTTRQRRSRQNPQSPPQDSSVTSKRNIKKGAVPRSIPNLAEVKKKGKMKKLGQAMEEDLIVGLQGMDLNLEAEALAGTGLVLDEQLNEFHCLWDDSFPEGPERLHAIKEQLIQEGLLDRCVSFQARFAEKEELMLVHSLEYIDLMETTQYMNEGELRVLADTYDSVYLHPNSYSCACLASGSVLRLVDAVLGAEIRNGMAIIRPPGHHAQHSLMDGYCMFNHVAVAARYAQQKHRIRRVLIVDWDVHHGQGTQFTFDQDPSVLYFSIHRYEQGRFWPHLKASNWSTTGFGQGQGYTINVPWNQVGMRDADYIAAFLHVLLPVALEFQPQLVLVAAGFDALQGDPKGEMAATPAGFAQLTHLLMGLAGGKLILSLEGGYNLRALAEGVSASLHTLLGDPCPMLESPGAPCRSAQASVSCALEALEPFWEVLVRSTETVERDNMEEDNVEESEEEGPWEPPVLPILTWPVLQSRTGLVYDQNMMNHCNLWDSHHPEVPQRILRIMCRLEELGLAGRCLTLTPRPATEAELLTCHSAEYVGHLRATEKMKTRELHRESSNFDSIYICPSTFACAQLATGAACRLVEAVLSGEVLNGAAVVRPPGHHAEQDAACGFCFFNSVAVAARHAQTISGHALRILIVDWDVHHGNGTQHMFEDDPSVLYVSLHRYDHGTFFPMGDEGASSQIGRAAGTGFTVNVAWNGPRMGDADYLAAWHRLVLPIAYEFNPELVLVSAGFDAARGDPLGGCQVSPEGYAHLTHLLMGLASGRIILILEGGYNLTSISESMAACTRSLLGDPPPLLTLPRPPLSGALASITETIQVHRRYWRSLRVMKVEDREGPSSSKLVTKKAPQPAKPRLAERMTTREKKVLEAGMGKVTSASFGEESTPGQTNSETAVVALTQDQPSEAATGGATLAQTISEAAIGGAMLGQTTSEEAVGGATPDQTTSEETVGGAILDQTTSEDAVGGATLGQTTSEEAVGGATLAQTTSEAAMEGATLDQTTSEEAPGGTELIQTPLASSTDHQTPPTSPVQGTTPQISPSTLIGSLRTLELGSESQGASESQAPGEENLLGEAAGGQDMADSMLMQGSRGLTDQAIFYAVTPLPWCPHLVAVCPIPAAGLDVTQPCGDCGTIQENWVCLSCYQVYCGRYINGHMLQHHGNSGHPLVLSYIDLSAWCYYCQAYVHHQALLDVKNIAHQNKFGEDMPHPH
The experiment in a line: In vitro HDAC6 inhibitory assay (BPS Bioscience, fluorogenic). Format: biochemical. The following applies: read-out: % Inhibition HDAC6. On the procedure: (1 picture or pasted object on this page, not shown here)
HDAC activity assays were performed in duplicates at each concentration. The

The subject of assay [5] is Hela nuclear extracts. As to the kind of experiment: Hela nuclear extract HDAC inhibitor assay (BPS Bioscience). Type of assay: biochemical. On the procedure: The purpose of the study is to determine the effects of twenty compounds from Misr International University on the enzymatic activities of hela nuclear extracts using an in vitro […]
7a Solution 10mM DMSO 10 10 % DMSO in
7b Solution 10mM DMSO 10 10 % DMSO in
7d Solution 10mM DMSO 10 10 % DMSO in
2.3 Experimental Conditions
2.3.1 Enzymes and Substrates
Assay Catalog # Substrate
Hela Nuclear Exctract 50053 10 µM HDAC Substrate 3
For the hela nuclear extracts, hela cells were grown to 90 % confluency. Hela nuclear extracts were prepared from the Nuclear Extraction Kit from abcam (Catalog # ab113474). The final total protein concentration was calculated to be 2.4 µg/µl. From this, the hela nuclear extracts was diluted 20-fold in HDAC assay buffer and 5 µl of the dilution was added to a 50 µl reaction.
The compounds are dissolved in DMSO. A series of dilutions of the compounds were prepared with 10% DMSO in HDAC assay buffer and 5 µl of the dilution was added to a 50 µl reaction so that the final concentration of DMSO is 1 % in all of […]
The enzymatic reactions for the hela nuclear extract were conducted in duplicate at 37 °C for 60 minutes in a 50 µl mixture containing HDAC assay buffer, 5 µg BSA, an HDAC substrate (see 2.3.1), hela nuclear extract, and a test compound (see 2.2).
After enzymatic reactions, 50μl of 2 x HDAC Developer was added to each well for the hela nuclear extract and the plate was incubated at room temperature for an additional 15 […]
Fluorescence intensity was measured at an excitation of 360 nm and an emission of 460 nm using a Tecan Infinite M1000 microplate reader.
Hela nuclear extract activity assays were performed in duplicates at each concentration.
The fluorescent intensity data were analyzed using the computer software, Graphpad Prism. In the absence of the compound, the fluorescent intensity (Ft) in each data set was defined as 100% activity. In the absence of hela nuclear extract, the fluorescent intensity (Fb) in each data set was defined as 0% activity. The percent activity in the presence of each compound was calculated according to the following equation: %activity = (F-Fb)/(Ft-Fb), where F= the fluorescent intensity in the presence of the compound.
The values of percentage activity were plotted on a bar graph.

Assay [6] concerns HDAC. The following applies: Figure 2; cited from earlier work.
Assay [7] has as its target T1, HDAC6. The following applies: Figure 2; cited from earlier work.
The mark [8] stands for this setting: Figure 3, read-out: VEGFR2 IC50.

Take `C#Cc1cccc(Nc2ncnc3cc(OC)c(OCCCCCCC(=O)NO)cc23)c1` [CUDC-101, 7-(4-(3-ethynylphenylamino)-7-methoxyquinazolin-6-yloxy)-N-hydroxyheptanamide]: the IC50 in assay [1] is 15 nM.
Turning to `Clc1ccc(Oc2ncnc3sc4c(c23)CCCCC4)cc1` [Compound D], in assay [2] (setting [8]), the IC50 was 340 nM.
For `O=C(Nc1cccc(Br)c1)Nc1ccc(Oc2ncnc3sc4c(c23)CCCCC4)cc1Cl` [Compound E], the values for the IC50 in assay [3] (Figure 3) and in assay [2] (setting [8]) were 1260 nM and 15 nM, respectively.
For the molecule `CC(C=CC(=O)NO)=CC(C)C(=O)c1ccc(N(C)C)cc1` (stereo not shown) [TSA, reference compound], in assay [4], the inhibition at 0.0005 µM stood at 23%. Besides, in assay [4], the inhibition at 0.005 µM was 73%. Moreover, in assay [4], the inhibition at 0.05 µM came out at 95%. Also, the entries for the “% Inhibition Hela Nuclear Extracts” value in assay [5] (0.0003 µM (printed 0.0003 M)), in assay [5] (0.003 µM (printed 0.003 M)) and in assay [5] (0.03 µM (printed 0.03 M)) were 7%, 46% and 88%, respectively.
Turning to `COc1cc2ncnc(Nc3ccc(Br)cc3)c2cc1OCCCCCCC(=O)NO` [compound B], the IC50 in assay [6] was 2.2 nM; in assay [2] (Figure 2, read-out: VEGFR2 IC50), 74 nM.
With `O=C(CCCCCCn1cc(-c2ccc3ncnc(Nc4ccc(Br)cc4F)c3c2)nn1)NO` [compound C], the results for the IC50 in assay [7], in assay [6] and in assay [3] (Figure 2) were 6 nM, 3.2 nM and 4.4 nM, respectively.
Turning to Vandetanib, the IC50 in assay [2] (read-out: IC50 VEGFR-2) is 40 nM.
